According to patent US20150105252A1, “SUBSTITUTED PYRAZOLES AS HERBICIDES” (E I DU PONT DE NEMOURS AND COMPANY, priority 2013, published 2015):

Legend:
Assay in all cases: Test C postemergence
[1] = test system: foxtail, giant; assay type: in vivo, Setaria faberii
Method in brief: (§1)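 In this greenhouse assay, seeded soil (loam plus sand) or emerged seedlings in peat-vermiculite medium were treated with formulated compound. Roughly two weeks later (13–15 days), each species was scored visually relative to controls, from 0 for no effect to 100 for complete control.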

[2] = test system: johnsongrass; assay type: in vivo, Sorghum halepense
Method in brief: as §1

[3] = test system: ragweed; assay type: in vivo, Ambrosia elation
Method in brief: as §1

[4] = test system: kochia; assay type: in vivo, Kochia scoparia
Method in brief: as §1

[5] = test system: oilseed rape; assay type: in vivo, Brassica napus
Method in brief: as §1

[6] = test system: pigweed; assay type: in vivo, Amaranthus retroflexus
Method in brief: as §1

[7] = test system: soybean; assay type: in vivo, Glycine max
Method in brief: as §1

[8] = test system: morningglory; assay type: in vivo, Ipomoea coccinea
Method in brief: as §1

[9] = test system: wheat; assay type: in vivo, Triticum aestivum
Method in brief: as §1

[10] = test system: waterhemp; assay type: in vivo, Amaranthus rudis
Method in brief: as §1

[11] = test system: oat, wild; assay type: in vivo, Avena fatua
Method in brief: as §1

[12] = test system: blackgrass; assay type: in vivo, Alopecurus myosuroides
Method in brief: as §1

[13] = test system: barnyardgrass; assay type: in vivo, Echinochloa crus-galli
Method in brief: as §1

[14] = test system: nutsedge, yellow; assay type: in vivo, Cyperus esculentus
Method in brief: as §1

[15] = test system: lambsquarters; assay type: in vivo, Chenopodium album
Method in brief: as §1

[16] = test system: ryegrass, Italian; assay type: in vivo, Lolium multiflorum
Method in brief: as §1

[17] = test system: chickweed; assay type: in vivo, Stellaria media
Method in brief: as §1

[18] = Postemergence, 31 g ai/ha, visually evaluated after 13 to 15 days
[19] = postemergence, 62 g ai/ha, scale 0 to 100
[20] = postemergence, 250 g ai/ha, scale 0 to 100 (0 no effect, 100 complete control)
[21] = postemergence, 125 g ai/ha, scale 0 to 100, 0 no effect, 100 complete control

CCc1cc(C(=O)NC2CC2)nn1Cc1ccnc(OC(F)F)c1 [Compound 98]
Plant response rating (scale of 0 to 100 where 0 is no effect and 100 is complete control), Foxtail, Giant [1, 18]: 45 | Foxtail, Giant plant response rating [1, 19]: 50 | Plant response rating, Foxtail, Giant [1, 20]: 85 | Plant response rating, Foxtail, Giant [1, 21]: 55 | Plant response rating (scale of 0 to 100 where 0 is no effect and 100 is complete control), Johnsongrass [2, 18]: 0 | Johnsongrass plant response rating [2, 19]: 5 | Plant response rating, Johnsongrass [2, 20]: 20 | Plant response rating, Johnsongrass [2, 21]: 5 | Plant response rating (scale of 0 to 100 where 0 is no effect and 100 is complete control), Ragweed [3, 18]: 15 | Ragweed plant response rating [3, 19]: 35 | Plant response rating, Ragweed [3, 20]: 75 | Plant response rating, Ragweed [3, 21]: 75 | Plant response rating (scale of 0 to 100 where 0 is no effect and 100 is complete control), Kochia [4, 18]: 40 | Kochia plant response rating [4, 19]: 75 | Plant response rating, Kochia [4, 20]: 85 | Plant response rating, Kochia [4, 21]: 85 | Plant response rating (scale of 0 to 100 where 0 is no effect and 100 is complete control), Oilseed Rape [5, 18]: 20 | Oilseed Rape plant response rating [5, 19]: 25 | Plant response rating, Oilseed Rape [5, 20]: 30 | Plant response rating, Oilseed Rape [5, 21]: 30 | Plant response rating (scale of 0 to 100 where 0 is no effect and 100 is complete control), Pigweed [6, 18]: 10 | Pigweed plant response rating [6, 19]: 10 | Plant response rating, Pigweed [6, 20]: 90 | Plant response rating, Pigweed [6, 21]: 30 | Plant response rating (scale of 0 to 100 where 0 is no effect and 100 is complete control), Soybean [7, 18]: 70 | Soybean plant response rating [7, 19]: 70 | Plant response rating, Soybean [7, 20]: 85 | Plant response rating, Soybean [7, 21]: 85 | Plant response rating (scale of 0 to 100 where 0 is no effect and 100 is complete control), Morningglory [8, 18]: 45 | Morningglory plant response rating [8, 19]: 50 | Plant response rating, Morningglory [8, 20]: 90 | Plant response rating, Morningglory [8, 21]: 70 | Plant response rating (scale of 0 to 100 where 0 is no effect and 100 is complete control), Wheat [9, 18]: 5 | Wheat plant response rating [9, 19]: 5 | Plant response rating, Wheat [9, 20]: 20 | Plant response rating, Wheat [9, 21]: 5 | Plant response rating (scale of 0 to 100 where 0 is no effect and 100 is complete control), Waterhemp [10, 18]: 10 | Waterhemp plant response rating [10, 19]: 45 | Plant response rating, Waterhemp [10, 20]: 90 | Plant response rating, Waterhemp [10, 21]: 85 | Plant response rating (scale of 0 to 100 where 0 is no effect and 100 is complete control), Oat, Wild [11, 18]: 5 | Oat, Wild plant response rating [11, 19]: 5 | Plant response rating, Oat, Wild [11, 20]: 25 | Plant response rating, Oat, Wild [11, 21]: 10 | Plant response rating (scale of 0 to 100 where 0 is no effect and 100 is complete control), Blackgrass [12, 18]: 5 | Blackgrass plant response rating [12, 19]: 5 | Plant response rating, Blackgrass [12, 20]: 40 | Plant response rating, Blackgrass [12, 21]: 25 | Plant response rating (scale of 0 to 100 where 0 is no effect and 100 is complete control), Barnyardgrass [13, 18]: 0 | Barnyardgrass plant response rating [13, 19]: 0 | Plant response rating, Barnyardgrass [13, 20]: 35 | Plant response rating, Barnyardgrass [13, 21]: 5 | Plant response rating (scale of 0 to 100 where 0 is no effect and 100 is complete control), Nutsedge, Yellow [14, 18]: 0 | Nutsedge, Yellow plant response rating [14, 19]: 5 | Plant response rating, Nutsedge, Yellow [14, 20]: 5 | Plant response rating, Nutsedge, Yellow [14, 21]: 5 | Plant response rating (scale of 0 to 100 where 0 is no effect and 100 is complete control), Lambsquarters [15, 18]: 60 | Lambsquarters plant response rating [15, 19]: 70 | Plant response rating, Lambsquarters [15, 20]: 95 | Plant response rating, Lambsquarters [15, 21]: 90 | Plant response rating (scale of 0 to 100 where 0 is no effect and 100 is complete control), Ryegrass, Italian [16, 18]: 5 | Ryegrass, Italian plant response rating [16, 19]: 10 | Plant response rating, Ryegrass, Italian [16, 20]: 10 | Plant response rating, Ryegrass, Italian [16, 21]: 10 | Plant response rating (scale of 0 to 100 where 0 is no effect and 100 is complete control), Chickweed [17, 18]: 100 | Chickweed plant response rating [17, 19]: 100 | Plant response rating, Chickweed [17, 20]: 100 | Plant response rating, Chickweed [17, 21]: 100
